# Measurements published in patent US9034866B2 (Genentech, Inc., priority 2012, dated 2015).
# Where “and” joins values, the source holds several entries; their conditions need not be identical. Identical values can stand only once.
# Target: nuclear factor-kappa B (NF-kB)-inducing kinase (NIK) (Homo sapiens (Human), UniProt Q99558)
# Experiment: NIK Enzyme Inhibition Assay (Transcreener ADP fluorescence polarization)
# Assay type: biochemical
# Details: purified NIK 0.2-1 nM, 10 uM ATP, Morrison's quadratic equation; read-out: NIK ADP-FP (Ki uM)
# Protocol: NIK Enzyme Inhibition Assay: The ability of the nuclear factor-kappa B (NF-kB)-inducing kinase (NIK) to catalyze the hydrolysis of adenosine-5′-triphosphate (ATP) was monitored using the Transcreener ADP (adenosine-5′-diphosphate) assay (BellBrook Labs). Purified NIK (0.2-1 nM) derived from a baculovirus-infected insect cell expression system was incubated with test compounds for 1-3.5 hours in 50 mM 2-[4-(2-hydroxyethyl)piperazin-1-yl]ethanesulfonic acid buffer (pH 7.2) containing 10 mM MgCl2, 2 mM dithiothreitol, 10 uM ATP, 0.01% Triton X-100, 0.1% gamma-globulins from bovine blood, 1% dimethylsulfoxide (DMSO), 12 ug/mL ADP antibody and 4 nM ADP-AlexaFluor® 633 tracer. Reactions were quenched by the addition of 20 mM 2,2′,2″,2′″-(ethane-1,2-diyldinitrilo)tetraacetic acid and 0.01% Brij 35. The tracer bound to the antibody was displaced by the ADP generated during the NIK reaction, which causes a decrease in fluorescence polarization that was measured by laser excitation at 633 nm with a Fluorescence Correlation Spectroscopy Plus reader (Evotec AG).
# nuclear factor-kappa B (NF-kB)-inducing kinase (NIK), sequence (Q99558 whole entry): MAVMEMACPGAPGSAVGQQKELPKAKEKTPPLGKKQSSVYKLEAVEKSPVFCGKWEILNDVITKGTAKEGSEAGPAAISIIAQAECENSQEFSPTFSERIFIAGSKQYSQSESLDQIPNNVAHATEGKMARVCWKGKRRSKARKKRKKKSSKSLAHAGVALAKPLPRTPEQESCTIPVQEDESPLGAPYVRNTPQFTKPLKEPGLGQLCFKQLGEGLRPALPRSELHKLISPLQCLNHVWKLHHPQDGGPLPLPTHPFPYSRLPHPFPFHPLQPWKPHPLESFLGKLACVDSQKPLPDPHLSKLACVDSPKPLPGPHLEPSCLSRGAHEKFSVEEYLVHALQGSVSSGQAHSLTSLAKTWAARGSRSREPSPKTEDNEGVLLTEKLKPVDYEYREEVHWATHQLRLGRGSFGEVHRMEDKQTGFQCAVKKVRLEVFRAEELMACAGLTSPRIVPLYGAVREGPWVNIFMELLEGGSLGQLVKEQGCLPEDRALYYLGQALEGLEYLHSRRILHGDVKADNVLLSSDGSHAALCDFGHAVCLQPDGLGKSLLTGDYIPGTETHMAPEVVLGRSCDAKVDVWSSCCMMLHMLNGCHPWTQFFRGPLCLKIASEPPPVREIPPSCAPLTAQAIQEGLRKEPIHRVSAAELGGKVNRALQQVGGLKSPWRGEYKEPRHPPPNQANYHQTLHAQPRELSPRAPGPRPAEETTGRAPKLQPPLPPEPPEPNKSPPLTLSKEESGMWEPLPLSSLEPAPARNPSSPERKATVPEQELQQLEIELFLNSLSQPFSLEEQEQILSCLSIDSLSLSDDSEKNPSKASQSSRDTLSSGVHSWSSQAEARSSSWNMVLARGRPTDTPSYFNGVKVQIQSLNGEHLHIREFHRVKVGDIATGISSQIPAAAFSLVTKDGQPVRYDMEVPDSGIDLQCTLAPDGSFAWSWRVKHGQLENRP
row,Structure (SMILES),Ki
1,"CC(O)(C#Cc1cc2c(cc1F)OCCn1cc(C(N)=O)nc1-2)c1ncccn1 (stereo not drawn) [Example 16, 8-fluoro-9-(3-hydroxy-3-pyrimidin-2-yl-but-1-ynyl)-4,5-dihydro-6-oxa-1,3a-diaza-benzo[e]azulene-2-carboxylic acid amide]",0.025 µM
2,CC(C)(O)C#Cc1cc2c(cc1F)C1CC(C1)c1sc(C(N)=O)cc1-2 (racemic),0.11 µM
3,CC(C)(O)C#Cc1ccc2c(c1)-c1nc(C(N)=O)c(Cn3ncc4ccccc43)n1CCO2,0.14 µM
4,CC(C)(O)C#Cc1cc2c(cc1F)OCCn1c-2nc(C(N)=O)c1C(=O)NC1CN2CCC1CC2 (racemic),0.453 µM
5,CC(O)(C#Cc1ccc2c(c1)-c1nc(C(N)=O)cn1C1CC2C1)c1ccccn1 (stereo not drawn),0.0071 µM
6,"CC(C)(O)C#Cc1ccc2c(c1)-c1nc(C(N)=O)cn1C1CC2C1 [Example 179, 10-(3-hydroxy-3-methyl-but-1-ynyl)-5,6,7,12-tetrahydro-5,7-methanobenzo[c]imi-dazo[1,2-a]azepine-2-carboxamide]",0.022 µM
7,CNC(=O)c1c(C(N)=O)nc2n1CCOc1ccc(C#CC(C)(O)CO)cc1-2 (racemic),0.003 µM
8,"CN1CC[C@@](O)(C#Cc2ccc3c(c2)-c2nc(C(N)=O)sc2C2CC3C2)C1=O [Example 609, (R)-9-((3-hydroxy-1-methyl-2-oxopyrro-lidin-3-yl)ethynyl)-5,6-dihydro-4H-4,6-methanobenzo[6,7]cyclohepta[1,2-d]thiazole-2-carboxamide]",0.00094 µM
9,"CC(=O)NC1COc2ccc(C#CC(C)(C)O)cc2-c2nc(C(N)=O)sc21 (stereo not drawn) [Example 26, 4-acetylamino-9-(3-hydroxy-3-methyl-but-1-ynyl)-4,5-dihydro-6-oxa-3-thia-1-aza-benzo[e]azulene-2-carboxylic acid amide]",0.21 µM
10,"CN1CCC(O)(C#Cc2ccc3c(c2)-c2nc(C(N)=O)cn2CCO3)C1 (stereo not drawn) [Example 23, 9-(3-hydroxy-1-methyl-pyrrolidin-3-yl-ethynyl)-4,5-dihydro-6-oxa-1,3a-diaza-benzo[e]azulene-2-carboxylic acid amide]",> 5 µM
11,Cn1nccc1Cc1c(C(N)=O)nc2n1C1CC(C1)c1ccc(C#C[C@@](C)(O)c3ncccn3)cc1-2,0.0013 µM
12,CC(O)(C#Cc1cc2c(cc1F)C1CC(C1)n1cc(C(N)=O)nc1-2)CO (stereo not drawn),0.014 µM
13,Cc1nc([C@](C)(O)C#Cc2ccc3c(c2)-c2nc(C(N)=O)cn2C2CC3C2)no1,0.003 µM
14,CN1CC[C@@](O)(C#Cc2ccc3c(c2)-c2nc(C(N)=O)c(C(=O)NC4CC4)n2C2CC3C2)C1=O,0.016 µM
15,CN1CCN(Cc2c(C(N)=O)nc3n2CCOc2ccc(C#CC(C)(C)O)cc2-3)CC1,0.95 µM
16,"Cc1cc([C@](C)(O)C#Cc2ccc3c(c2)-c2nc(C(N)=O)c(C(=O)NCC4COC4)n2CCO3)no1 [Example 580, (R)-10-(3-hydroxy-3-(5-methylisoxazol-3-yl)but-1-yn-1-yl)-N3-(oxetan-3-ylmeth-yl)-5,6-dihydrobenzo[f]imidazo[1,2-d][1,4]oxazepine-2,3-dicarboxamide]",0.0026 µM
17,CC(C)(O)C#Cc1ccc2c(c1)-c1nc(C(N)=O)c(CNC3COC3)n1CCO2,0.00054 µM
18,Cc1cc([C@](C)(O)C#Cc2ccc3c(c2)-n2nc(C(N)=O)cc2CCO3)no1,0.0066 µM
19,CC(C)(O)C#Cc1cc2c(cc1F)OCCn1c-2nc(C(N)=O)c1C(=O)NC1(C)COC1 [Example 60],0.025 µM
20,Cn1cc(C(O)c2c(C(N)=O)nc3n2CCOc2cc(F)c(C#CC(C)(C)O)cc2-3)cn1 (stereo not drawn),0.082 µM
21,"CC(O)(C#Cc1cc2c(cc1F)OCCn1cc(C(N)=O)nc1-2)c1cnccn1 (stereo not drawn) [Example 15, 8-fluoro-9-(3-hydroxy-3-pyrazin-2-yl-but-1-ynyl)-4,5-dihydro-6-oxa-1,3a-diaza-benzo[e]azulene-2-carboxylic acid amide]",0.036 µM

# The next lines start with the values.
row,Ki,Structure (SMILES)
1,0.879 µM,CN1CCC(CNC(=O)c2c(C(N)=O)nc3n2CCOc2cc(F)c(C#CC(C)(C)O)cc2-3)C1 (racemic) [Example 68]
2,0.0004 µM,"CN1CC[C@@](O)(C#Cc2ccc3c(c2)-n2nc(C(N)=O)c(Cl)c2C(F)(F)CO3)C1=O [Example 719, (R)-3-chloro-4,4-difluoro-9-((3-hydroxy-1-methyl-2-oxopyrrolidin-3-yl)ethynyl)-4,5-dihydrobenzo[b]pyrazolo[1,5-d][1,4]oxazepine-2-carboxamide]"
3,0.216 µM,"CC(C)(O)C#Cc1ccc2c(c1)-c1nc(C(N)=O)sc1C(=O)CO2 [Example 9, 9-(3-hydroxy-3-methyl-but-1-ynyl)-4-oxo-4,5-dihydro-6-oxa-3-thia-1-aza-benzo-[e]azulene-2-carboxylic acid amide]"
4,0.00078 µM,"CN1CC[C@@](O)(C#Cc2ccc3c(c2)-c2nc(C(N)=O)c(C(F)F)n2C2CC3C2)C1=O [Example 664, 3-(difluoromethyl)-10-[2-[(3R)-3-hy-droxy-1-methyl-2-oxo-pyrrolidin-3-yl]ethy-nyl]-5,6,7,12-tetrahydro-5,7-methano-benzo[c]imidazo[1,2-a]azepine-2-carboxamide]"
5,> 5 µM,"Cc1nnc(C(C)(C#Cc2ccc3c(c2)-c2nc(C(N)=O)cn2CCO3)CO)[nH]1 (stereo not drawn) [Example 28, 9-[4-hydroxy-3-methyl-3-(5-methyl-4H-[1,24]triazol-3-yl)-but-1-ynyl]-4,5-di-hydro-6-oxa-1,3a-diaza-benzo[e]azulene-2-carboxylic acid amide]"
6,0.00068 µM,CC(C)(O)C#Cc1cc2c(cc1F)C1CC(C1)c1[nH]c(C(N)=O)nc1-2 (racemic)
7,0.416 µM,"CC(C)(O)C#Cc1ccc2c(c1)-c1nc(C(N)=O)sc1C(N1CCOCC1)CO2 (stereo not drawn) [Example 11, 9-(3-hydroxy-3-methyl-but-1-ynyl)-4-morpholin-4-yl-4,5-dihydro-6-oxa-3-thia-1-aza-benzo[e]azulene-2-carboxylic acid amide]"
8,0.056 µM,COCCNCc1c(C(N)=O)nc2n1C1CC(C1)c1cc(F)c(C#CC(C)(C)O)cc1-2 (racemic)
9,0.022 µM,"CC(C)(O)C#Cc1cc2c(cc1F)C1CC(C1)n1c-2nc(C(N)=O)c1C(O)c1ccn[nH]1 (stereo not drawn) [Example 309, 9-fluoro-10-(3-hydroxy-3-methyl-but-1-ynyl)-3-[hydroxy(1H-pyrazol-5-yl)meth-yl]-5,6,7,12-tetrahydro-5,7-methanoben-zo[c]imidazo[1,2-a]azepine-2-carboxamide]"
10,> 5 µM,Cc1nc(C(C)(O)C#Cc2cc3c(cc2Cl)OCCn2cc(C(N)=O)nc2-3)no1 (racemic) [Example 231]
11,1.2 µM,CC(O)(C#Cc1cc2c(cc1F)OCCn1cc(C(N)=O)nc1-2)c1nc(CC#N)cs1 (racemic) [Example 77]
12,0.001 µM,"CN1CC[C@@](O)(C#Cc2ccc3c(c2)-n2nc(C(N)=O)c(CO)c2CCO3)C1=O [Example 720, (R)-9-((3-hydroxy-1-methyl-2-oxopyrro-lidin-3-yl)ethynyl)-3-(hydroxymethyl)-4,5-dihydrobenzo[b]pyrazolo[1,5-d][1,4]oxazepine-2-carboxamide]"
13,2.3 µM,NC(=O)c1cn2c(n1)-c1cc(C#CC3(O)CC(CO)C3)c(F)cc1OCC2 (stereo not drawn) [Example 76]
14,> 5 µM,Cc1cc(C(C)(O)C#Cc2cc3c(cc2Cl)OCCn2cc(C(N)=O)nc2-3)no1 (racemic)
15,> 1.2 µM,"Cc1cc([C@](C)(O)C#Cc2ccc3c(c2)-c2nc(C(N)=O)c(C(=O)NCc4cccc(F)c4)n2CCO3)no1 [Example 713, (R)-N3-(3-fluorobenzyl)-10-(3-hydroxy-3-(5-methylisoxazol-3-yl)but-1-yn-1-yl)-5,6-dihydrobenzo[f]imidazo[1,2-d][1,4]oxazepine-2,3-dicarboxamide]"
16,1.8 µM and 1.1 µM,NC(=O)c1cc2n(n1)-c1cc(C#CC3(O)CCCC3O)ccc1OCC2 (stereo not drawn) [Example 695]
17,0.037 µM,"CC(C)(O)C#Cc1cc2c(cc1F)OCCn1c-2nc(C(N)=O)c1C1CC1 [Example 36, 3-cyclopropyl-8-fluoro-9-(3-hydroxy-3-methyl-but-1-ynyl)-4,5-dihydro-6-oxa-1,3a-diaza-benzo[e]azulene-2-carboxylic acid amide]"
18,> 5 µM,CC(C)(C#Cc1cc2c(cc1F)OCCn1cc(C(N)=O)nc1-2)CO (racemic)
19,0.00077 µM,CC(C)(O)C#Cc1cc2c(cc1F)C1CC(C1)n1c-2nc(C(N)=O)c1-c1nc(-c2cccnc2)n[nH]1 (racemic) [Example 207]
20,0.017 µM,"CC(C)(O)C#Cc1cc2c(cc1F)C1CC(C1)n1c-2nc(C(N)=O)c1CNC(=O)C(C)(C)C [Example 365, 3-[(2,2-dimethylpropanoylamino)meth-yl]-9-fluoro-10-(3-hydroxy-3-methyl-but-1-ynyl)-5,6,7,12-tetrahydro-5,7-meth-anobenzo[c]imidazo[1,2-a]azepine-2-carb-oxamide]"
21,> 5 µM,"CC(O)(C#Cc1cc2c(cc1F)OCCn1cc(C(N)=O)nc1-2)c1ccc(Cl)cn1 (stereo not drawn) [Example 102, 9-[3-(5-chloro-pyridin-2-yl)-3-hydroxy-but-1-ynyl]-8-fluoro-4,5-dihydro-6-oxa-1,3a-diaza-benzo[e]azulene-2-carboxy-lic acid amide]"
22,0.002 µM,CNC(=O)c1c(C(N)=O)nc2n1CCOc1cc(F)c(C#CC(C)(O)CO)cc1-2 (racemic)

# Same assay, conditions: read-out: NIK ADP-FP (Ki uM)
row,Structure (SMILES),Ki
1,"Cc1cc([C@](C)(O)C#Cc2ccc3c(c2)-n2nc(C(N)=O)cc2C(F)(F)CO3)no1 [Example 674, (R)-4,4-difluoro-9-(3-hydroxy-3-(5-methylisoxazol-3-yl)but-1-yn-1-yl)-4,5-dihydrobenzo[b]pyrazolo[1,5-d][1,4]oxazepine-2-carboxamide]",0.0011 µM
2,CNC(=O)c1c(C(N)=O)nc2n1C1CC(C1)c1cc(F)c(C#C[C@@](C)(O)c3noc(C)n3)cc1-2,0.051 µM
